Data on one sequence can be found in patent publication US8138148B2, “GDNF derived peptides” (Copenhagen University, priority 2005, dated 2012).

Experiment [1] concerns primary hippocampal neurons. Put plainly: Neurite outgrowth assay, monocultures of primary hippocampal neurons. It is filed as cell-based, rat. To be noted: monoculture, stimulated 24 hours; GDNF 1-100 ng/ml, peptides 0.1-27 μg/ml; versus medium alone. How it is done: Two different versions of the neurite outgrowth assay were used in this study, monocultures and co-cultures.
In monocultures, neurons are grown directly on plastic and the only neuritogenic stimulus is the one presented by the added substance. In co-cultures, neurons are grown on top of a confluent monolayer of fibroblasts expressing NCAM-140 (LBN110) or NCAM-negative control fibroblasts (LVN212). NCAM on the neurons interact with NCAM on LBN110 cells thereby stimulating neurite outgrowth from the neurons. This system thus permits the study of NCAM-NCAM interactions and interactions between NCAM and other molecules.
For all experiments cells were grown in neurobasal medium with supplements as described above in a final volume of 300 μl/well in 8-well LabTek® Permanox Chamber slides or 500 μl/well in 4-well LabTek® Permanox Chamber slides.
For monocultures, primary hippocampal neurons were seeded in 8-well LabTek® Permanox Chamber slides at a density of 10,000 cells/well.
To evaluate the effect peptides on neurite outgrowth, GDNF and the peptides, G1, G2, G3, A1, A2, A3, N1, N2 and N3 were diluted to the appropriate concentrations and added to the neurons approximately 10 minutes after seeding. Medium alone was added to controls, and cells were incubated for 24 hours.
Neurite outgrowth experiments were terminated after the stated time by fixating the cells. To visualize neurons and their neurites, immunostaining of GAP-43 was performed. This staining is specific for neurons. Transfected cells and their neurites should be visible without immunostaining due to the fluorescence emitted by GFP. […] GFP is a cytoplasmic protein, and since thin neurites only contain a small volume of cytoplasm, GFP is only found in small amounts in most neurites. Therefore, a double-staining protocol, where cells were immunostained against GFP and GAP-43, was adopted. This protocol allowed the identification of transfected cells on the basis of GFP-staining in combination with visualization of neurites based on GAP-43-staining. […]

Another experiment concerns hippocampal neurons. Description: Neurite outgrowth of hippocampal neurons transfected with dominant negative FGFR. It is filed as cell-based, rat. To be noted: 10 ng/ml GDNF or 3 μg/ml GDNFp1, 18 hours, dnFGFR vs empty vector. The protocol:
For cocultures, L-cells were seeded in 8-well LabTek® Permanox Chamber slides at a density of 100.000 cells/well, except for transfection experiments where cells were seeded in 4-well LabTek® Permanox Chamber slides at a density of 200.000 cells/well. L-cells were grown for 24 hours in DMEM supplemented with 10% (v/v) FCS, 1% (v/v) glutamax, 100 U/ml penicillin, 100 μg/ml streptomycin, 2.5 μg/ml fungizone, and 567 μg/ml neomycin (G418), followed by washing twice in neurobasal medium with supplements before primary hippocampal neurons were seeded at a density of 7.000 cells/well in 8-well slides or 20.000 cells/well in 4-well slides.
Additionally, neurons were transiently transfected with a dominant negative version of the FGFR (dnFGFR), As an alternative to the use of a pharmacological FGFR inhibitor, The dnFGFR plasmid encodes an FGFR that lacks the kinase domain. This mutant receptor inhibits the function of wild type FGFR by engaging in dimers that lack kinase activity. Transfection with an empty vector served as control. Transfection was also done with wtFGFR in order to assess the effect of overexpressing the FGFR.
Transfections were performed with a Nucleofector™ device and a Rat Neuron Nucleofector™ kit (Amaxa Inc., Gaithersburg, Md., USA). This transfection method is based on electroporation in combination with a Nucleofector™ solution containing lipophilic agents. These agents form liposomes containing the plasmid DNA, which then enter the cells during electroporation. The method allows transfection of undividing cells such as neurons. 3 μg of the plasmid of interest was mixed with the Nucleofector™ solution and primary hippocampal neurons were resuspended in the mixture, electroporated in the Nucleofector™ device, and transferred to neurobasal medium with supplements and 5% (v/v) FCS. Cells were then incubated for 2 hours after which they were resuspended in medium without serum, counted, seeded and incubated for 6 hours before GDNF or GDNFp1 was added. Medium alone was added to control and cells were incubated for 18 hours.
All transient transfections in this study included co-transfection with a plasmid encoding EGFP, which allows the identification of transfected cells. To ensure that all EGFP-expressing cells also are transfected with the plasmid of interest, a ratio of […] between the EGFP-encoding plasmid and the plasmid of interest was used (i.e. 0.5 μg EGFP-encoding plasmid was used for each transfection).
Neurite outgrowth experiments were terminated after the stated time by fixating the cells. To visualize neurons and their neurites, immunostaining of GAP-43 was performed. This staining is specific for neurons. Transfected cells and their neurites should be visible without immunostaining due to the fluorescence emitted by GFP. […]

Take “ETTYDKILKNLSRNR (listed as Homo sapiens) [G2, GDNF fragment]”: the “neurite outgrowth, overall effect of treatment (one-way ANOVA)” value in experiment [1] is given as “overall statistical significant effect”. In the experiment on hippocampal neurons (NCAM-expressing fibroblasts), the “neurite outgrowth mediated by the substance after transfection with dominant negative FGFR, on NCAM-expressing fibroblasts” value is listed as “decreases neurite outgrowth”. Further, in the experiment on hippocampal neurons (control fibroblasts), the “neurite outgrowth mediated by the substance after transfection with dominant negative FGFR, on control fibroblasts” value is “decreases neurite outgrowth”.
